In US9783849B2, “Method for identifying immunoreactive peptides” (immatics biotechnologies GmbH, priority 2002, dated 2017):

Columns and labels:
[1] = test system: CD8+ T-cells (PBMC from HLA-A2 positive renal cell carcinoma patients); assay: quantitative PCR assay of γ-Interferon-mRNA production after 7 day in vitro sensitization with peptide; format: cell-based, human; conditions: PBMC from 6 HLA-A2 positive renal cell carcinoma patients
Description: PBMC from 6 HLA-A2 positive renal cell carcinoma patients were tested for reaction against four of the relevant peptides: HLA-A*02-restricted ligands from adipophilin, keratin 18, K1AA0367 and met-proto-oncogene. In doing so, a very sensitive quantitative PCT assay was carried out to detect γ-Interferon-mRNA production by CD8^+ T-cells following a 7 day-in vitro-sensitization with peptide.

[2] = test system: CD8+ T-lymphocytes (PBMC); assay: staining of PBMC with HLA-A*0201 tetramers, flow cytometry; format: cell-based, human
Source text: Peripheral blood mononuclear cells (in the following PBMC) from two healthy donors (HDI and HD2), which were serologically typed as CMV-positive, were isolated by gradient centrifugation (FicoLite H) and frozen.
HLA-A *0201 tetrameric complexes were produced as described by Altman et al., 1996, Phenotypic analysis of antigen-specific T-lymphocytes, Science 274: 94-96, as follows: The HLA-A2-binding peptides used for the refolding were […] (SEQ ID NO: 1) from keratin 18 and […] (SEQ ID NO: 2) from pp65 HCMVA. Tetramers were assembled by mixing biotinylated monomers with streptavidin-PE or streptavidin-APC and 2-3×10^6 cells were incubated 30 min at 4° C. with both tetramers: 10 μg/ml for each monomer in PBS, 0.01% NaN3, 2 mM EDTA, 50% fetal calf serum). Then, monoclonal antibodies Anti-CD4-FITC (Coulter-Immunotech) and Anti-CD8-PerCP (Becton Dickinson) were added for 20 min. After three washes, samples were fixed in FACS buffer, 1% formaldehyde. Four-color analysis was performed on a FACScalibur cytometer (Becton Dickinson).
Staining of PBMC of tumor patients and healthy individuals with HLA-A*0201 tetramers was performed with tetramers reconstituted either with adipophilin, keratin 18 or met-proto-oncogene.
Dot plots show samples from one of three independent experiments for 1×10^6 PBMC. In the plots, percentage of tetramer^+-cells within the CD8^+ CD4^− population are indicated.

Sequence	γ-Interferon-mRNA production by CD8+ T-cells (response to peptide) [1]	staining of the keratin 18-specific CD8+ population with the tetramer ([2]; simultaneous staining with HLA-A2/keratin 18-PE and HLA-A2/CMV-APC tetramers, specificity control)	healthy individuals in whom a significant specific CD8+ T-lymphocyte population was found ([2]; HLA-A*0201 tetramer staining of PBMC of healthy individuals)
YVDPVITSI (listed as Homo sapiens) [met-proto-oncogene, HLA-A*02-restricted ligand derived from met proto-oncogene]	Sporadic responses		
NLVPMVATV [CMV tetramer, reference compound]		did not stain	
SVASTITGV (listed as Homo sapiens) [adipophilin, HLA-A*02-restricted ligand from adipophilin]	Sporadic responses		
ALLNIKVKL (listed as Homo sapiens) [keratin 18]	Sporadic responses		4 out of 22
